The results in this text go back to patent US20190247353A1, “ACNE STRAIN-SELECTIVE ANTIBACTERIAL AGENT” (MOMOTANI JUNTENKAN CO., LTD., priority 2016, published 2019).

Type in all cases: cell-based, Propionibacterium acnes
Assay [1] has as its system HL053PA1 strain (RT4) and HL043PA1 strain (RT5) versus HL110PA3 strain (RT6). In words: Strain-selective antibacterial activity (average of MICRT6/MICRT4 and MICRT6/MICRT5). As to conditions: for Strain-selective antibacterial activity over the tested pH range, in words: tested pH range pH 5 to 7. An excerpt: Herein, “acne strain-selective antibacterial activity” or “strain-selective antibacterial activity” means an index indicating better inhibition of growth of a dominant strain in acne patients compared to that of a dominant strain in healthy subjects. It is expressed by the average value of the values (MICRT6/MICRT4, and MICRT6/MICRTS) obtained by dividing the minimum inhibitory concentration (MIC) of an object substance with respect to the dominant strain in healthy subjects (RT6 strain) (MICRT6) respectively by the MIC of the object substance with respect to the dominant strain in acne patients (RT4 strain) (MICRT4), and by the MIC of the object substance with respect to the dominant strain in acne patients (RT5 strain) (MICRT5).
The strain-selective antibacterial activity of each test substance (Table 2, right-most column) was evaluated based on the following rating criteria (Table 3). When the strain-selective antibacterial activity is indicated by a numerical range, the rating was based on the minimum value thereof.

The test system of another assay is HL056PA1 strain (RT4). Put plainly: MIC by broth microdilution method, HL056PA1 strain. As to conditions: Cutibacterium acnes, PA1; Example 6, method as Example 1; read-out: MIC against acne bacterium strain HL056 PA1 strain (RT4). As for the experimental part: (§1) The antibacterial activity of a test substance was determined based on the minimum inhibitory concentration (MIC). An MIC was measured according to the broth microdilution method which is the standard method of Japanese Society of Chemotherapy.
(§2) Each of strain suspensions (5.0×10^4 cfu/mL) was aliquoted in a 96-well round bottom microplate, each of the test substance (fatty acid concentration 10,000 μg/mL) was added at a 1/10 volume to the aliquot and mixed to prepare measurement samples (fatty acid concentration: 1,000 μg/mL). Measurement samples in 2-fold dilution series were prepared using the strain suspension (fatty acid concentration from 0.48 to 1,000 μg/mL). Using a sample containing only the solvent (DMSO) as a control, it was confirmed that the influence of the solvent on the growth of each strain could be neglected.
(§3) The measurement samples were incubated under an anaerobic condition at 37° C. for 2 days. The presence or absence of a precipitation of test microbial cells after the incubation was examined and the minimum concentration at which the precipitation of microbial cells […] was regarded as the MIC (μg/mL) of the test substance against the acne bacterium strain.
(§4) The MIC of each of the following test substances was measured substantially in the same manner as in Example 1 (Table 12) except that a suspension of test bacterium strains was prepared using the dominant strain in acne patients (HL005PA1 strain (HM-492^†, RT4 strain), […] (HM-524^†, RT4 strain), HL045PA1 strain (HM-516^†, RT4 strain), or HL043PA2 strain (HM-514^†, RT5 strain)), or the dominant strain in healthy subjects (HL110PA4 strain (HM-555^†, RT6 strain) instead of the dominant strains in acne patients (HL053PA1 strain (RT4 strain) and HL043PA1 strain (RT5 strain)) and the dominant strain in healthy subjects (HL110PA3 strain (RT6 strain) used in Examples 1 to 3.
On the technique in general: In broth dilution the organism is exposed to a series of concentrations in liquid medium.

The subject of the next assay is HL045PA1 strain (RT4). Put plainly: MIC by broth microdilution method, HL045PA1 strain. As to conditions: Cutibacterium acnes, PA1; Example 6, method as Example 1; read-out: MIC against acne bacterium strain HL045 PA1 strain (RT4). As for the experimental part:
as §1, §2, §3, §4

Assay [2] concerns HL053PA1 strain (RT4 strain). In words: Time course of viable cell count, HL053PA1 strain. As to conditions: 15 μg/mL, pH 6.0, anaerobic 37° C., 0 to 44 hours (FIG. 1a). As for the experimental part: (§5) To each strain suspension (pH 6.0, 5.0×10^5 cfu/mL) of the acne bacterium strain (HL053PA1 strain (RT4 strain), HL043PA1 strain (RT5 strain), and HL110PA3 strain (RT6 strain)) prepared in the same manner as in Example 1, pentadecanoic acid (C15:0) was added to mix together (final concentration of a fatty acid of 15 μg/mL, and final concentration of solvent DMSO of 0.5%), and each the mixture was statically cultured at 37° C. in a nitrogen atmosphere (anaerobic condition). Using a sample to which only DMSO was added at 0.5% (final concentration) as a control, it was confirmed that the influence of the solvent on the growth of each strain could be neglected.
(§6) The viable cell count in the culture solution was measured at 0, 2, 8, 18, 30 and 44 hours after the start of culturing. A viable cell count (cfu/mL) was calculated from the number of emerged colonies after culturing part of the culture solution on a GAM broth agar plate under anaerobic conditions for 3 days (FIG. 1).

Assay [3] relates to HL043PA1 strain (RT5 strain) and HL110PA3 strain (RT6 strain). Put plainly: Coculture test, coculturing strain suspension-2. On the set-up: dose or concentration left out as unconfirmed. As to conditions: pH 6.0, 2 days (FIG. 2b). From the text:
Acne bacteria strains (HL053PA1 strain (RT4 strain), HL043PA1 strain (RT5 strain), and HL110PA3 strain (RT6 strain)) were respectively precultured in the same manner as in Example 1.
The HL053PA1 strain (RT4 strain) and the HL110PA3 strain (RT6 strain) were suspended in a modified GAM broth liquid medium (pH 6.0) respectively at a concentration of 5.0×10^4 cfu/mL. Similarly, the HL043PA1 strain (RT5 strain) and the HL110PA3 strain (RT6 strain) were suspended respectively at a concentration of 5.0×10^4 cfu/mL. The suspensions were respectively designated as coculturing strain suspensions-1, and -2.
[…] Using a sample to which only 0.5% of DMSO was added as a control, it was confirmed that the influence of the solvent on the growth of each bacterium strain could be neglected.
The test sample was statically cultured under anaerobic conditions at 37° C. for 2 days. After the culture, part of the culture solution was cultured under anaerobic conditions on a GAM broth agar plate (pH 7) for 3 days. The bacterium strains were identified based on the morphology (particularly size) of the emerged colonies, and the viable cell count (cfu/mL) of each bacterium strain was measured. From the measurement results, the proportion of each bacterium strain in the entire microbial cells was calculated (FIG. 2).

In assay [4] the test system is HL110PA3 strain (RT6 strain). Put plainly: Time course of viable cell count, HL110PA3 strain. As to conditions: 15 μg/mL, pH 6.0, anaerobic 37° C., 0 to 44 hours (FIG. 1c). As for the experimental part: as §5, §6
The subject of assay [5] is HL043PA1 strain (RT5 strain). In words: Time course of viable cell count, HL043PA1 strain. As to conditions: 15 μg/mL, pH 6.0, anaerobic 37° C., 0 to 44 hours (FIG. 1b). As for the experimental part:
as §5, §6

≈ marks a conversion by molar mass, not a printed value.

For orientation: MIC means the lowest concentration found to suppress growth. With `CCCCCCCCCCCCCC(=O)O` [Myristic acid (C14:0), Myristic acid], the Strain-selective antibacterial activity is reported as more than 48 in assay [1] (pH 5.0); more than 64 in assay [1] (pH 5.5); 16 in assay [1] (pH 6.0 (Example 1)); more than 5.0 in assay [1] (pH 6.5); 2.0 in assay [1] (pH 7.0). Moreover, the “Strain-selective antibacterial activity at each pH” value in assay [1] (pH 5 (summary Table 10)) is reported as more than 48; in assay [1] (pH 5.5 (summary Table 10)), more than 64; in assay [1] (pH 6 (summary Table 10)), 16; in assay [1] (pH 6.5 (summary Table 10)), more than 5.0; in assay [1] (pH 7 (summary Table 10)), 2.0. The MIC with HL056PA1 strain (RT4) came to 125 µg/mL (≈ 547 µM); with HL045PA1 strain (RT4), 31.3 µg/mL (≈ 137 µM).

For `CCCCCCCCCCCCCCCC(=O)O` [Palmitic acid (C16:0), Palmitic acid], the Strain-selective antibacterial activity in assay [1] (pH 5.5) is recorded as more than 16; in assay [1] (pH 6.0 (Example 1)), more than 130; in assay [1] (pH 6.5) it was more than 130; in assay [1] (pH 7.0) it was 40. The “Strain-selective antibacterial activity at each pH” value in assay [1] (pH 5.5 (summary Table 10)) is on record as more than 16; in assay [1] (pH 6 (summary Table 10)) it was more than 130; in assay [1] (pH 6.5 (summary Table 10)) it was more than 130; in assay [1] (pH 7 (summary Table 10)) it was 40. Further, the MIC in the assay on HL056PA1 strain (RT4) turned out to be 500 µg/mL (≈ 1950 µM); in the assay with HL045PA1 strain (RT4) it was 250 µg/mL (≈ 975 µM).

`CCCCCCCCCCCCCCC(=O)O` [Pentadecanoic acid (C15:0), Pentadecanoic acid]: the “Growth of the HL053PA1 strain (RT4 strain), viable cell count time course” value in assay [2] is reported as “bacteriostatically suppressed”. For the same compound, the “Growth of the dominant strain in acne patients in coculture with RT6 strain” value in assay [3] is “suppressed selectively”. For the same compound, the Strain-selective antibacterial activity is more than 96 in assay [1] (pH 5.0); more than 260 in assay [1] (pH 5.5); 130 in assay [1] (pH 6.0 (Example 1)); more than 96 in assay [1] (pH 6.5); 260 in assay [1] (pH 7.0). Further, the “Strain-selective antibacterial activity at each pH” value is more than 96 in assay [1] (pH 5 (summary Table 10)); more than 260 in assay [1] (pH 5.5 (summary Table 10)); 130 in assay [1] (pH 6 (summary Table 10)); more than 96 in assay [1] (pH 6.5 (summary Table 10)); 260 in assay [1] (pH 7 (summary Table 10)). In addition, in assay [1], the “Strain-selective antibacterial activity over the tested pH range, in words” value is “maintained a high strain-selective antibacterial activity over the entire pH range tested (pH 5 to 7)”. For the same compound, in assay [4], the “Growth of the HL110PA3 strain (RT6 strain), viable cell count time course” value was “not suppressed”. The MIC with HL056PA1 strain (RT4) and in the assay with HL045PA1 strain (RT4) was 3.9 µg/mL (≈ 16.1 µM) each time. In assay [5], the “Growth of the HL043PA1 strain (RT5 strain), viable cell count time course” value is “suppressed first bacteriostatically and then bactericidally after 10 hours from the start of culturing”.

Regarding `CCCCCCCCCCCCCCCCC(=O)O` [Heptadecanoic acid (C17:0), Heptadecanoic acid], the Strain-selective antibacterial activity is recorded as more than 64 in assay [1] (pH 5.5), more than 130 in assay [1] (pH 6.0 (Example 1)), more than 140 in assay [1] (pH 6.5) and 72 in assay [1] (pH 7.0). Further, the “Strain-selective antibacterial activity at each pH” value in assay [1] (pH 5.5 (summary Table 10)) is more than 64; in assay [1] (pH 6 (summary Table 10)), more than 130; in assay [1] (pH 6.5 (summary Table 10)) it was more than 140; in assay [1] (pH 7 (summary Table 10)) it was 72. For the same compound, in assay [1], the “Strain-selective antibacterial activity over the tested pH range, in words” value was “maintained a high strain-selective antibacterial activity between pH 5.5 and pH 7”. In addition, the figures for the MIC in the assay on HL056PA1 strain (RT4) and in the assay on HL045PA1 strain (RT4) were 250 µg/mL (≈ 924 µM) and 125 µg/mL (≈ 462 µM), respectively.
